Tests used:
PTGS2 mRNA = PTGS2 mRNA levels in CD14+ monocytes cultured with HDL+SAA1 (qRT-PCR); assay type: cell-based, human; conditions: 24 h
Experimental: Quantitative RT-PCR (qRT-PCR). Total RNA was purified using the Direct-Zol™ RNA MiniPrep kit and total RNA (100 ng) was reverse transcribed into cDNA using the High-Capacity cDNA Reverse Transcription Kit (Applied Biosystems, Foster City, Calif.). Polymerase chain reactions (PCR) were performed on duplicate cDNA samples using TaqMan Universal PCR Master Mix, FAM-MGB dye-labeled Taqman® PTGS2 probe (Assay ID Hs00153133_m1, catalog #4331182), and a 7900 Real Time PCR System running Sequence Detector version 2.4 software, all from Applied Biosystems (Foster City, Calif.). Gene expression was quantified relative to expression of 18S rRNA using the control sample as a calibrator to calculate the difference in Ct values (ΔΔCt) and presented as relative mRNA expression. For quantification of miR-155-5p expression, miRNA present in total RNA (10 ng) was converted to cDNA using the microRNA cDNA Reverse Transcription kit (Applied Biosystems, Foster City, Calif.). Polymerase chain reaction (PCR) was performed on duplicate cDNA samples using TaqMan Universal PCR Master Mix, Taqman® MicroRNA Assay for has-miR-155-5p (Assay ID #002623, catalog #4427975), and a 7900HT Fast Real-Time PCR System running Sequence Detector version 2.4 software (ThermoFisher Scientific, Waltham, Mass.). miR-155-5p expression was quantified relative to expression of U6 snRNA using the control sample as calibrator to calculate the difference in Ct values (ΔΔCt) and presented as relative mRNA expression.
miR-155 Inhibition. CD14+ monocytes were suspended in 4D human monocyte Nucleofector™ solution (Amaxa™ P3 Primary Cell 4D-Nucleofector™ X kit, catalog #V4XP-3024, Lonza, Walkersville, Md.) to a final concentration of 2×10^6 cells/100 […] at room temperature. […] CD14^+ monocytes were plated at a density of 4×10^4 cells/well in a 96-well plate to collect culture media for cytokine quantification and the remaining cells were plated in a 24-well plate to isolate total RNA for qRT-PCR. After 72 h, cytokine secretion was quantified by ELISA and mRNA levels were quantified by qRT-PCR.

THP-1 monocytes = assay: Cytokine secretion by THP-1 monocytes stimulated with endogenous SAA-high HDL; assay type: cell-based, human; conditions: pre-treated 1 h; for ability of endogenous SAA-high HDL to induce cytokine secretion: SAA-high HDL 24 h
Experimental: HDL Isolation and Analysis. HDL was isolated from plasma by size-exclusion chromatography using two Superose 6 columns in series on an Akta FPLC system (GE Healthcare Life Sciences, Pittsburgh, Pa.), as previously described. FPLC fractions were assayed for cholesterol content (Cholesterol E, catalog #996021611, FUJIFILM Wako Diagnostics USA, Mountain View, Calif.) to identify HDL fractions, which were pooled and concentrated using a 10-kDa exclusion filter (Amicon Ultra Centrifuge Filters, Millipore, Darmstadt, Germany). The content of SAA in purified HDL was quantified using the human SAA ELISA kit, while APOA1 was quantified using the human APOA1 ELISA development kit (Mabtech, Nacka Strand, Sweden). THP-1 monocytes (American Type Culture Collection, Manassas, Va.) were treated with HDL from SAA-high asthmatics (n=16), as well as HDL from asthmatics with the lowest SAA levels (n=16), and the quantity of […], IL-6, TNF-α, and IL-10 secreted into culture medium over 24 h was assayed using Human DuoSet ELISA kits (R&D Systems, Minneapolis, Minn.) and data were acquired using a SpectraMax M2 spectrophotometer (Molecular Devices, San Jose, Calif.).
Stimulation of THP-1 monocytes with endogenous HDL from SAA-high asthmatics and suppression of cytokine secretion were further studied. HDL (4 μg of protein/ml) isolated from plasma from a SAA-high asthmatic (SAA-high HDL) and from a healthy non-asthmatic subject (Normal HDL) were used to stimulate THP-1 monocytes for 24 h. THP-1 monocytes were pre-treated with the FPR2 antagonist, WRW4 or water (40 μM) as the vehicle control, or A438079 or DMSO (10 μM) as the vehicle control, for 1 h prior to stimulation with normal or SAA-high HDL for 24 h. One-way ANOVA with Sidak's multiple comparisons test. ****P<0.0001.
HDL ([…] of protein/ml) isolated from plasma from a SAA-high asthmatic (SAA-high HDL) and from a healthy non-asthmatic subject (Normal HDL) were used to stimulate THP-1 monocytes for 24 h. THP-1 monocytes were pre-treated with BAY-11-7082 ([…] (1 μM) or DMSO (10 μM) as the vehicle control for 1 h, as indicated, prior to stimulation with normal or SAA-high HDL for 24 h. One-way ANOVA with Sidak's multiple comparisons test. ****P<0.0001.
HDL (4 μg of protein/ml) isolated from plasma from a SAA-high asthmatic (SAA-high HDL) and from a healthy non-asthmatic subject (Normal HDL) were used to stimulate THP-1 monocytes for 24 h. A. THP-1 monocytes were pre-treated with celecoxib or DMSO (0.01 μM) as the vehicle control for 1 h, as indicated, prior to stimulation with normal or SAA-high HDL for 24 h. One-way ANOVA with Sidak's multiple comparisons test. ****P<0.0001.

[1] = A438079 10 μM, SAA-high HDL 4 μg of protein/ml 24 h

NC(=O)Nc1sc(-c2ccc(F)cc2)cc1C(N)=O [TPCA1]
HDL+SAA1-mediated increases in PTGS2 mRNA (PTGS2 mRNA; TPCA-1 1 μM): prevented
ability of endogenous SAA-high HDL to induce cytokine secretion (THP-1 monocytes; TPCA-1 1 μM): abrogate

Clc1cccc(-c2nnnn2Cc2cccnc2)c1Cl [A438079]
HDL+SAA1-mediated increases in PTGS2 mRNA (PTGS2 mRNA; A438079 10 μM): attenuated
IL-1β secretion induced by endogenous SAA-high HDL (THP-1 monocytes; [1]): inhibited
IL-6 secretion induced by endogenous SAA-high HDL (THP-1 monocytes; [1]): inhibited
TNF-α secretion induced by endogenous SAA-high HDL (THP-1 monocytes; [1]): inhibited

Cc1ccc(S(=O)(=O)/C=C/C#N)cc1 [BAY 11-7082]
HDL+SAA1-mediated increases in PTGS2 mRNA (PTGS2 mRNA; BAY-11-7082 10 μM): prevented
ability of endogenous SAA-high HDL to induce cytokine secretion (THP-1 monocytes; BAY-11-7082 10 μM): abrogate
